Experimental findings from patent publication US4296108A, “2,2-Dichlorocyclopropyl-methyl-phosphoric acid derivatives” (priority 1979, dated 1981) are described below.

Common to all, as to format: in vivo
Data set [1] concerns cockroaches (Blatta orientalis). Kind of data set: whole plant or invertebrate. To be noted: 48 hours; for mortality at 0.2 mg: 0.2 mg active ingredient per jar; for mortality at 0.1 mg: 0.1 mg active ingredient per jar. As to the method:
Contact action on cockroaches (Blatta orientalis)
The bottom of 1-liter preserving jars is treated with acetonic solutions of the active ingredients. After the solvent has evaporated, 5 adult cockroaches are placed in each jar, and the kill rate is determined after 48 hours.

The test system of data set [2] is bean aphids (Aphis fabae). Put plainly: Contact action on bean aphids (Aphis fabae); spray experiment. To be noted: 48 hours; for mortality at 0.005 %: 0.005 wt % in formulation; for mortality at 0.01 %: 0.01 wt % in formulation. As to the method:
Contact action on bean aphids (Aphis fabae); spray experiment
Potted bean plants (Vicia faba) with extensive bean aphid colonies are sprayed to runoff in a spray booth with aqueous formulations of the active ingredients.
(§1) The action is assessed after 48 hours.

Data set [3] deals with ticks (Ornithodorus moubata). Put plainly: Contact action on ticks (Ornithodorus moubata). To be noted: 3rd larval stage, 48 hours. The protocol:
Contact action on ticks (Ornithodorus moubata)
Ticks in the 3rd larval stage are placed in paper bags and dipped for 3 seconds in the emulsion under investigation. The bags are then suspended. The action on the ticks is assessed after 48 hours.

The subject of data set [4] is caterpillars of the diamondback moth (Plutella maculipennis). Put plainly: Contact action and effect of ingested food on caterpillars of the diamondback moth (Plutella maculipennis). Particulars: 4th stage caterpillars, 48 hours, read-out: Kill rate; for mortality at 0.02 %: 0.02 wt % in emulsion; for mortality at 0.01 %: 0.01 wt % in emulsion; for mortality at 0.001 %: 0.001 wt % in emulsion; for mortality at 0.002 %: 0.002 wt % in emulsion. As to the method: Contact action and effect of ingested food on caterpillars of the diamondback moth (Plutella maculipennis)
Leaves of young cabbage plants are dipped for 3 seconds in aqueous emulsions of the active ingredients and, after excess liquid has been briefly allowed to drip off, placed on a moist filter paper in a Petri dish. 10 caterpillars of the 4th stage are then placed on each leaf.
as §1

For data set [5], the system named is houseflies (Musca domestica). Put plainly: whole plant or invertebrate. Particulars: 4 hours; for mortality at 0.02 mg: 0.02 mg active ingredient per dish. As to the method: Continuous contact action on houseflies (Musca domestica)
Both covers and bottoms of Petri dishes 10 cm in diameter are lined with a total per dish of 2 ml of acetonic solutions of the active ingredients. After the solvent has evaporated (about 30 mins.), 10 flies are introduced into each dish. The kill rate is determined after 4 hours.

The test system of data set [6] is houseflies (Musca domestica). Kind of data set: Contact action on houseflies (Musca domestica), topical to ventral abdomen. Particulars: 1 μl in acetone to ventral abdomen; 4-day old imagoes; 4 hours; worked out by graph. The protocol:
Contact action on houseflies (Musca domestica)
1 μl of the active ingredients dissolved in acetone is administered by means of a microsyringe to the ventral abdomen of 4-day old imagoes under slight CO2 narcosis.
20 animals treated in the same way are then placed in a plastic bag having a volume of approx. 500 ml. After 4 hours, the animals in supine position are counted and the LD50 is worked out by means of a graph.

Data set [7] deals with root-knot nematodes (Meloidogyne incognita). Put plainly: Action on root-knot nematodes (Meloidogyne incognita). To be noted: cucumber, 6 to 8 weeks. As to the method:
Action on root-knot nematodes (Meloidogyne incognita)
Garden soil heavily infested with Meloidogyne incognita is split into 200 g portions which are intimately mixed with 30 ml of aqueous active ingredient formulations and filled into plastic pots. Two cucumber seeds are then placed in the soil prepared in this manner. The temperature is not allowed to go below +22° C.
After 6 to 8 weeks root attack is assessed.

Where [8] appears, read: Aphis fabae, 0.02 wt % in formulation, read-out: Kill rate.
[9] abbreviates: Aphis fabae, read-out: Kill rate.
[10] abbreviates: Musca domestica, read-out: Kill rate.
Setting [11] is: Blatta orientalis, read-out: Kill rate.
Setting [12] is: Musca domestica, 0.2 mg active ingredient per dish, read-out: Kill rate.

The structures appear in SMILES notation.

Take `CCOP(=O)(OCC1C(C)(C)C1(Cl)Cl)Oc1ccc([N+](=O)[O-])cc1` (centres unmarked) [Active ingredient 1, O-ethyl-O-[(2,2-dichloro-3,3-dimethyl-cyclopropyl)-methyl]-O-(4-nitrophenyl)phosphate]: the mortality at 0.25 mg in data set [1] (Blatta orientalis, 0.25 mg active ingredient per jar, 5 adult cockroaches, read-out: Kill rate) came to 80%. In addition, the mortality at 0.02 % in data set [2] (setting [8]) and in data set [4] was 100% each time. The Kill rate in data set [3] (10.0 ppm in emulsion) amounted to 100%.
Regarding `COP(=O)(OCC1CC1(Cl)Cl)Oc1ccccc1[N+](=O)[O-]` (centres unmarked) [Active ingredient 3, O-methyl-O-[(2,2-dichlorocyclopropyl)-methyl]-O-(2-nitrophenyl)phosphate], the mortality at 0.005 % in data set [2] (setting [9]) came to 100%.
`COP(=O)(OCC1CC1(Cl)Cl)Oc1cc(Cl)c(Cl)cc1Cl` (centres unmarked) [Active ingredient 4, O-methyl-O-[(2,2-dichloro-cyclopropyl)-methyl]-O-(2,4,5-trichlorophenyl)phosphate]: in data set [2] (setting [9]), the mortality at 0.01 % was roughly 90%. For the same compound, the mortality at 0.02 mg in data set [5] (setting [10]) was 100%. Moreover, the LD50 in data set [6] was 0.055 μg/fly. Also, the Kill rate in data set [3] (5.0 ppm in emulsion) was 100%.
On to `COP(=S)(OC)Oc1cc(Cl)c(Cl)cc1Cl` [III], for which the mortality at 0.5 mg in data set [1] (Blatta orientalis, 0.5 mg active ingredient per jar, read-out: Kill rate) is 100%. In data set [6], this compound registered an LD50 of 0.13 μg/fly. For the same compound, the mortality at 0.02 % in data set [4] is 50%.
`CCOP(=S)(Oc1ccc(Cl)cc1Cl)c1ccccc1` (centres unmarked) [II]: the Kill rate entry in data set [1] (1.0 mg active ingredient per jar) is “ineffective”; in data set [2] (0.02 wt % in formulation) it was less than 80%; in data set [5] (0.2 mg active ingredient per dish), “ineffective”.
As to `COP(=S)(OC)Oc1ccc([N+](=O)[O-])c(C)c1` [IV], in data set [1] (0.25 mg active ingredient per jar, 5 adult cockroaches), the Kill rate entry is recorded as “ineffective”.
With `CCOP(=S)(OCC)SCC1CC1(Cl)Cl` (centres unmarked) [I], the mortality at 5 mg in data set [1] (Blatta orientalis, 5.0 mg active ingredient per jar, read-out: Kill rate) amounted to 100%. Further, the mortality at 0.1 % in data set [2] (Aphis fabae, 0.1 wt % in formulation, read-out: Kill rate) was less than 50%; in data set [4] (0.1 wt % in emulsion), 50%. Besides, the mortality at 2 mg in data set [5] (Musca domestica, 2.0 mg active ingredient per dish, read-out: Kill rate) is 100%. In data set [7] (0.1 % active ingredient concentration, ditto mark repeats "no root-knots"), the “root attack (root-knots)” value is reported as “sporadic root-knots”.
In the case of `COP(=O)(OCC1C(C)(C)C1(Cl)Cl)Oc1ccc([N+](=O)[O-])cc1` (centres unmarked) [compound 7], the mortality at 0.2 mg in data set [1] (setting [11]) and in data set [5] (setting [12]) was 100% in each case. Also, the mortality at 0.01 % in data set [2] (setting [9]) was roughly 90%; in data set [4], 80%. The same compound yielded a Kill rate in data set [3] (10.0 ppm in emulsion) of 100%.
As to `COP(=O)(OCC1(C)CC1(Cl)Cl)Oc1ccc([N+](=O)[O-])cc1` (centres unmarked) [compound 10], the mortality at 0.04 mg in data set [1] (Blatta orientalis, 0.04 mg active ingredient per jar, read-out: Kill rate) was determined as 100%. Besides, the mortality at 0.01 % in data set [2] (setting [9]) and in data set [4] was 100% in each case. Moreover, in data set [5] (setting [12]), the mortality at 0.2 mg came to 100%. The compound also came in with a Kill rate in data set [3] (10.0 ppm in emulsion) of 100%.
In data set [3] (10.0 ppm in emulsion), `COP(=O)(OCC1C(C)(C)C1(Cl)Cl)Oc1ccccc1[N+](=O)[O-]` (centres unmarked) [compound 14] came in with a Kill rate of 100%.
For the compound `COP(=O)(OCC1(C)CC1(Cl)Cl)Oc1cc(Cl)c(Cl)cc1Cl` (centres unmarked) [compound 16], in data set [7] (0.05 % active ingredient concentration), the “root attack (root-knots)” value is “no root-knots”.
With `COP(=O)(OCC1C(C)(C)C1(Cl)Cl)Oc1ccc(SC)cc1` (centres unmarked) [compound 17], in data set [5] (setting [12]), the mortality at 0.2 mg was determined as 80%. Besides, the Kill rate in data set [3] (2.5 ppm in emulsion) is 100%.
For the compound `CCOP(=O)(OCC1C(C)(C)C1(Cl)Cl)Oc1ccc(SC)cc1` (centres unmarked) [compound 18], in data set [3] (2.5 ppm in emulsion), the Kill rate worked out at 100%.
`CCOP(=O)(OCC1C(C)(C)C1(Cl)Cl)Oc1ccc(SC)c(C)c1` (centres unmarked) [compound 19] showed a Kill rate in data set [3] (10.0 ppm in emulsion) of 100%.
Consider `COP(=O)(OCC1C(C)(C)C1(Cl)Cl)Oc1ccc(SC)c(C)c1` (centres unmarked) [compound 20], for which, in data set [3] (2.5 ppm in emulsion), the Kill rate was found to be 100%.
On to `COP(=O)(OCC1(C)CC1(Cl)Cl)Oc1ccc(SC)cc1` (centres unmarked) [compound 21], for which the mortality at 0.1 mg in data set [1] (setting [11]) is 100%. The mortality at 0.2 mg in data set [5] (setting [12]) was determined as 100%. In data set [3] (1.0 ppm in emulsion), this compound yielded a Kill rate of 100%.
In the case of `COP(=O)(OCC1CC1(Cl)Cl)Oc1ccc(C#N)cc1` (centres unmarked) [compound 23], in data set [1] (setting [11]), the mortality at 0.1 mg was 100%. In data set [2] (setting [9]), the mortality at 0.005 % was roughly 90%. Moreover, the mortality at 0.02 mg in data set [5] (setting [10]) stood at 100%. In addition, the LD50 in data set [6] is 0.073 μg/fly. For the same compound, the Kill rate in data set [3] (1.0 ppm in emulsion) worked out at 100%. Moreover, in data set [4], the mortality at 0.001 % came out at 80%.
In the case of `COP(=O)(OCC1CC1(Cl)Cl)Oc1ccc(SC)cc1` (centres unmarked) [compound 24], the mortality at 0.1 mg in data set [1] (setting [11]) was 100%. The mortality at 0.002 % in data set [2] (Aphis fabae, 0.002 wt % in formulation, read-out: Kill rate) was 100%; in data set [4], 80%. Moreover, the mortality at 0.02 mg in data set [5] (setting [10]) stood at 100%. In addition, in data set [6], the LD50 is 0.051 μg/fly. Also, the Kill rate in data set [3] (1.0 ppm in emulsion) was 100%.
On to `COP(=O)(OCC1CC1(Cl)Cl)Oc1ccc(SC)c(C)c1` (centres unmarked) [compound 25], for which, in data set [1] (setting [11]), the mortality at 0.2 mg came to 100%. Further, the mortality at 0.005 % in data set [2] (setting [9]) was determined as 100%. In data set [5] (setting [10]), the mortality at 0.02 mg stood at 80%. Moreover, the Kill rate in data set [3] (10.0 ppm in emulsion) is 100%. Also, the mortality at 0.002 % in data set [4] was found to be 80%.
On to `COP(=O)(OCC1CC1(Cl)Cl)Oc1ccc(Cl)cc1Cl` (centres unmarked) [compound 26], for which, in data set [2] (setting [8]), the mortality at 0.02 % was 100%. Further, the mortality at 0.2 mg in data set [5] (setting [12]) came out at 100%.
For `COP(=O)(OCC1CC1(Cl)Cl)Oc1ccc([N+](=O)[O-])cc1` (centres unmarked) [compound 27], the mortality at 0.02 mg in data set [1] (Blatta orientalis, 0.02 mg active ingredient per jar, read-out: Kill rate) stood at 80%; in data set [5] (setting [10]), 100%. In addition, the mortality at 0.005 % in data set [2] (setting [9]) was roughly 90%. Also, in data set [6], the LD50 stood at 0.057 μg/fly. The same compound had a Kill rate in data set [3] (1.0 ppm in emulsion) of 100%. For the same compound, the mortality at 0.001 % in data set [4] stood at 100%.
For the compound `COP(=O)(OCC1C(C)C1(Cl)Cl)Oc1cc(Cl)c(Cl)cc1Cl` (centres unmarked) [compound 28], the mortality at 0.02 % in data set [2] (setting [8]) is 100%. In addition, the mortality at 0.2 mg in data set [5] (setting [12]) was 80%.
As for `COP(=O)(OCC1C(C)C1(Cl)Cl)Oc1ccc(Cl)cc1Cl` (centres unmarked) [compound 29], in data set [2] (setting [8]), the mortality at 0.02 % amounted to 100%.
Regarding `COP(=O)(OCC1C(C)C1(Cl)Cl)Oc1ccc(SC)cc1` (centres unmarked) [compound 30], the mortality at 0.01 % in data set [2] (setting [9]) amounted to 100%. Further, the mortality at 0.2 mg in data set [5] (setting [12]) turned out to be 100%. Besides, the Kill rate in data set [3] (10.0 ppm in emulsion) amounted to 100%.
On to `COP(=O)(OCC1C(C)C1(Cl)Cl)Oc1ccc([N+](=O)[O-])cc1` (centres unmarked) [compound 31], for which the mortality at 0.2 mg in data set [1] (setting [11]) was 100%. Also, the Kill rate in data set [3] (5.0 ppm in emulsion) turned out to be 100%. The mortality at 0.01 % in data set [4] came out at 80%.
With `COP(=O)(OCC1(C)CC1(Cl)Cl)Oc1ccc([N+](=O)[O-])cc1Cl` (centres unmarked) [compound 32], the mortality at 0.008 % in data set [2] (Aphis fabae, 0.008 wt % in formulation, read-out: Kill rate) was determined as 100%. For the same compound, in data set [5] (setting [12]), the mortality at 0.2 mg turned out to be 100%. The Kill rate in data set [3] (10.0 ppm in emulsion) is given as 100%.
In the case of `COP(=O)(OCC1(C)CC1(Cl)Cl)Oc1ccc([N+](=O)[O-])c(C)c1` (centres unmarked) [compound 33], the mortality at 0.01 % in data set [2] (setting [9]) was 100%. In addition, the mortality at 0.2 mg in data set [5] (setting [12]) worked out at 80%.
